Test results: ChEMBL document CHEMBL1122373, “Multisubstrate adducts as potential inhibitors of S-adenosylmethionine dependent methylases: inhibition of indole N-methyltransferase by (5'-deoxyadenosyl)[3-(3-indolyl)prop-1-yl]methylsulfonium and (5'-deoxyadenosyl)[4-(3-indolyl)but-1-yl]methylsulfonium salts” (J Med Chem, 1983)

Target: T1, Catechol O-methyltransferase (Sus scrofa, UniProt Q99028)
T1 sequence (Q99028 whole entry): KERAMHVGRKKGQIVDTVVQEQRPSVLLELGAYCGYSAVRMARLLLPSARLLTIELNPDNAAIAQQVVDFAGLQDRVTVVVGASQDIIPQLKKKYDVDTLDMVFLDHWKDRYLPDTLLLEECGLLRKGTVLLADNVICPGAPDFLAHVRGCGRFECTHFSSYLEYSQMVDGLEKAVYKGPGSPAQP
Experiment: Inhibitory activity against catechol O-methyltransferase
Settings: read-out: I50

Row | SMILES | IC50
1 | C[S+](CCCCc1c[nH]c2ccccc12)C[C@H]1O[C@@H](n2cnc3c(N)ncnc32)[C@H](O)[C@@H]1O (some centres not stated) | 10 mM
2 | C[S+](CCCc1c[nH]c2ccccc12)C[C@H]1O[C@@H](n2cnc3c(N)ncnc32)[C@H](O)[C@@H]1O (some centres not stated) | > 10 mM
